{
  "source": "patent US11274332B2",
  "about": "“Methods of administering 3,4-diaminopyridine” (SERB SA, priority 2011, dated 2022)",
  "target": "T1, cloned human Kv1.5 potassium channel (Homo sapiens, UniProt P22460)",
  "T1 construct": "expressed in transfected cells",
  "T1 sequence (P22460 whole entry)": "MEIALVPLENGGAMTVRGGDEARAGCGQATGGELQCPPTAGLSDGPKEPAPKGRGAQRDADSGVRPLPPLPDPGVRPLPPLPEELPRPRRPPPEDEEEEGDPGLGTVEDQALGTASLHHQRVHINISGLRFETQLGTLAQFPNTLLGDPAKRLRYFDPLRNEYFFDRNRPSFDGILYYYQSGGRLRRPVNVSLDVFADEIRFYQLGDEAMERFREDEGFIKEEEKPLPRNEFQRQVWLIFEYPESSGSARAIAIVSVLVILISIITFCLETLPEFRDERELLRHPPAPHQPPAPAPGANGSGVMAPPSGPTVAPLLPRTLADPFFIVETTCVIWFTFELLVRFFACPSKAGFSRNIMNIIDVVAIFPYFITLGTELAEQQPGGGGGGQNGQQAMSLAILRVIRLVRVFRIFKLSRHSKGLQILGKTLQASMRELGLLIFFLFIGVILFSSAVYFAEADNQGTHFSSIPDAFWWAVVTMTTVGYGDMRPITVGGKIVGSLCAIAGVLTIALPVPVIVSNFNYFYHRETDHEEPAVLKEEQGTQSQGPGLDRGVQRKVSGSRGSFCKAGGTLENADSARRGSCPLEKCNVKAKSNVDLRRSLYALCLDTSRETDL",
  "experiment": "PatchXpress inhibition of cloned human Kv1.5 in CHO cells (Example 6)",
  "format": "cell-based",
  "details": "hKv1.5, up to 3000 μM",
  "source_text": "The objective of this study was to examine the in vitro effects and determine the […] of 3,4-DAP phosphate and the metabolite N-(4-aminopyridin-3-yl) acetamide HCl on the following ion channels: cloned human Kv1.1 potassium channel (encoded by the human KCNA1 gene, expressed in HEK293 cells), cloned human Kv1.2 potassium channel (encoded by the human KCNA2 gene, expressed in HEK293 cells), cloned human Kv1.3 potassium channel (encoded by the human KCNA3 gene, expressed in CHO cells), cloned human Kv1.4 potassium channel (encoded by the human KCNA4 gene, expressed in HEK293 cells), cloned human Kv1.5 potassium channel (encoded by the human KCNA5 gene and expressed in CHO cells), responsible for IKur, ultra-rapid delayed rectifier potassium current.\nChemicals used in solution preparation were purchased from Sigma-Aldrich (St. Louis, Mo.), unless otherwise noted, and were of ACS reagent grade purity or higher. Stock solutions of each test article (100 mM, 30 mM and 1.00 mM 3,4-DAP phosphate and 100 mM N-(4-aminopyridin-3-yl)acetamide) were prepared in sterile water and stored refrigerated. […]\nIn preparation for a recording session, intracellular solution was loaded into the intracellular compartments of the Sealchip16. […] After establishment of a whole-cell configuration, membrane currents were recorded using dual-channel patch clamp amplifiers in the PatchXpress®. […]",
  "data": [
    {"smiles": "CC(=O)Nc1cnccc1N", "note": "[3-N-acetyl amifampridine, N-(4-aminopyridin-3-yl)acetamide]", "values": [
      {"measurement": "activity on K+ channel", "result": "inactive"},
      {"measurement": "activity on K+ channel", "setting": "listed as N-acetyl metabolite", "result": "not active"}
    ]}
  ]
}
